# What was measured:
# Experiment in all cases: relative viability (nuclei count vs DMSO), 5 days (fraction); higher = more cells survive
# [1] = compound: C1CN(CCN1)C2=CC=C(C=C2)C3=CN4C(=C(C=N4)C5=CC=NC6=CC=CC=C56)N=C3 [DM3189] + CC(=O)Nc1cccc(-n2c(=O)n(C3CC3)c(=O)c3c(Nc4ccc(I)cc4F)n(C)c(=O)c(C)c32)c1 [Trametinib] (partner 0.02 µM)
# Summary of the method: (§1)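 After 5 days of treatment, lung cancer cells in 1536-well plates were fixed and stained in a single step (final 0.05% Triton X-100, 1% formaldehyde, 1 ug/ml Hoechst) and their nuclei counted on 4× images. Treatment had been applied by pin tool the day after seeding as one drug alone or as a fixed anchor-drug dose with five library-drug doses (not always all listed) in √10 steps. Relative viability is the nuclei count of treated wells divided by that of vehicle wells, and values are medians of duplicate plates.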
# [2] = compound: C1CN(CCN1)C2=CC=C(C=C2)C3=CN4C(=C(C=N4)C5=CC=NC6=CC=CC=C56)N=C3 [DM3189] + C[C@@H](Oc1cc(-c2cnn(C3CCNCC3)c2)cnc1N)c1c(Cl)ccc(F)c1Cl [Crizotinib] (partner 1 µM)
# Summary of the method: as §1
# [3] = compound: C1CN(CCN1)C2=CC=C(C=C2)C3=CN4C(=C(C=N4)C5=CC=NC6=CC=CC=C56)N=C3 [DM3189] + C[C@]1(O)C[C@@H](c2nc(-c3ccc4ccc(-c5ccccc5)nc4c3)c3c(N)nccn32)C1 [Linsitinib] (partner 1 µM)
# Summary of the method: as §1
# [4] = compound: C1CN(CCN1)C2=CC=C(C=C2)C3=CN4C(=C(C=N4)C5=CC=NC6=CC=CC=C56)N=C3 [DM3189] + Nc1nc2[nH]cc(CCc3ccc(C(=O)N[C@@H](CCC(=O)O)C(=O)O)cc3)c2c(=O)[nH]1 [Pemetrexed] (partner 0.2 µM)
# Summary of the method: as §1
# [5] = compound: C1CN(CCN1)C2=CC=C(C=C2)C3=CN4C(=C(C=N4)C5=CC=NC6=CC=CC=C56)N=C3 [DM3189] + O=C(c1cc(Cc2n[nH]c(=O)c3ccccc23)ccc1F)N1CCN(C(=O)C2CC2)CC1 [Olaparib] (partner 8 µM)
# Summary of the method: as §1
Cell Line,relative viability ([1]; first compound 0.08 µM),relative viability ([1]; first compound 0.253 µM),relative viability ([1]; first compound 0.8 µM),relative viability ([1]; first compound 2.53 µM),relative viability ([2]; first compound 0.08 µM),relative viability ([2]; first compound 0.253 µM),relative viability ([2]; first compound 0.8 µM),relative viability ([2]; first compound 2.53 µM),relative viability ([3]; first compound 0.08 µM),relative viability ([3]; first compound 0.253 µM),relative viability ([3]; first compound 0.8 µM),relative viability ([3]; first compound 2.53 µM),relative viability ([4]; first compound 0.08 µM),relative viability ([4]; first compound 0.253 µM),relative viability ([4]; first compound 0.8 µM),relative viability ([4]; first compound 2.53 µM),relative viability ([5]; first compound 0.08 µM),relative viability ([5]; first compound 0.253 µM),relative viability ([5]; first compound 0.8 µM),relative viability ([5]; first compound 2.53 µM)
NCI-H23,0.409,0.352,0.324,0.442,0.545,0.491,0.442,0.579,0.649,0.588,0.445,0.742,0.759,0.635,0.641,0.676,0.253,0.305,0.233,0.294
NCI-H322M,0.532,0.518,0.517,0.511,1.06,0.848,0.872,0.924,0.891,0.863,0.921,0.977,0.64,0.582,0.557,0.501,0.938,0.793,0.743,0.768
NCI-H358,0.133,0.111,0.129,0.129,0.516,0.56,0.504,0.509,0.766,0.646,0.71,0.584,0.172,0.155,0.181,0.168,0.7,0.539,0.56,0.395
NCI-H441,0.563,0.536,0.508,0.407,0.951,0.751,0.737,0.924,0.587,0.511,0.518,0.548,0.3,0.243,0.295,0.287,0.689,0.485,0.663,0.583
NCI-H460,0.341,0.242,0.154,0.241,0.839,0.939,0.96,1.02,1.21,0.879,0.708,0.353,0.0522,0.0522,0.0641,0.0646,0.449,0.415,0.325,0.619
NCI-H520,0.672,0.413,0.43,0.321,0.752,0.748,0.485,0.303,0.995,0.863,0.706,0.554,0.603,0.492,0.49,0.296,0.348,0.339,0.293,0.233
NCI-H596,0.814,0.842,0.901,0.847,1.15,1.01,0.93,0.943,1.15,1.13,1.05,1.14,0.49,0.442,0.512,0.477,0.588,0.646,0.702,0.747
NCI-H647,0.488,0.399,0.378,0.412,1.12,0.877,0.883,0.307,0.966,0.946,1,1.17,0.185,0.178,0.173,0.146,0.459,0.492,0.368,0.163
NCI-H650,0.988,0.826,0.749,0.877,0.754,0.575,0.594,0.661,1.12,0.84,0.659,0.763,1.02,0.956,0.958,0.936,0.355,0.428,0.347,0.329
NCI-H661,0.7,0.581,0.642,0.623,1,1.01,0.949,1.08,0.606,0.675,0.734,0.747,1.03,0.861,0.955,0.884,0.845,0.75,0.708,0.71
NCI-H838,0.57,0.454,0.388,0.496,0.752,0.815,0.531,0.732,0.969,0.918,0.716,0.87,0.238,0.255,0.239,0.22,0.871,0.711,0.543,0.556
NCI-H1355,0.408,0.429,0.33,0.421,1.14,1.12,0.955,0.971,0.785,0.793,0.663,0.738,1.03,0.986,0.821,1.03,0.723,0.687,0.689,0.785
NCI-H1437,0.63,0.577,0.65,0.696,0.904,0.898,0.832,0.831,1.05,1.06,0.966,0.893,0.34,0.333,0.326,0.293,0.627,0.633,0.609,0.592
NCI-H1651,0.867,0.793,0.813,0.937,0.857,0.886,0.878,0.957,1.09,1.02,1.21,0.991,0.729,0.556,0.553,0.541,0.191,0.179,0.168,0.177
NCI-H1666,1.03,0.951,0.863,–,1.07,1.01,0.965,0.8,0.861,0.808,0.842,1.04,1,0.818,0.844,–,0.714,0.682,0.691,–

# Reference: the supplement of paper PMC10307832
